Assay results reported in USRE43748E1, “Nitrogen-containing heterocyclic carboxamide derivatives or salts thereof and antiviral agents comprising the same” (priority 1998, dated 2012).

Columns and labels:
[1] = system: rhino virus typeII strain; assay: Anti-rhino activity, plaque inhibition in HeLa cells; format: cell-based; settings: 72 h, plaque number, 30 μg/ml of compound, 3 days at 33° C., read-out: Inhibition percent (%)
[2] = system: Vero cell (monkey kidney cell); assay: Cytotoxic activity, XTT method; format: cell-based; settings: Primates, 96 h, Vero cells, cultured 4 days, read-out: 50% cell growth inhibitory concentration (IC50)

Row | SMILES | inhibition at 30 µg/mL [1] [%] | IC50 [2] [µg/mL]
1 | CC(=O)NC(=O)c1nccnc1O [No. 3, N^2-acetyl-3-hydroxy-2-pyrazinecarboxamide] | 47.2 | 
2 | NC(=O)c1nccnc1O [No. 1, 3-hydroxy-2-pyrazinecarboxamide] |  | ≥ 250
